Legend:
Design in all cases: scale not given: the % may be the effect or the level left
[1] = molecular target: Multidrug resistance protein 1a (Rattus norvegicus) (UniProt Q6PSM0); assay: TP_TRANSPORTER: inhibition of Daunomycin uptake (Daunorubicin: 10 uM, UDCA: 200 uM) in canalicular membrane vesicles from SD rat; type: functional, cell membranes; conditions: Sprague-Dawley, Canalicular membrane vesicle
[2] = molecular target: Multidrug resistance protein 1a (Rattus norvegicus) (UniProt Q6PSM0); assay: TP_TRANSPORTER: inhibition of Daunomycin uptake (Daunorubicin: 10 uM, TCDC: 200 uM) in canalicular membrane vesicles from SD rat; type: functional, cell membranes; conditions: Sprague-Dawley, Canalicular membrane vesicle
[3] = molecular target: ATP-dependent translocase ABCB1 (Homo sapiens, UniProt P08183); assay: TP_TRANSPORTER: inhibition of Rhodamine 123 efflux (R123: 5 ug/mL, TCDC: 200 uM) in P1(0.5) cells; type: functional, cell-based
Sequence of ATP-dependent translocase ABCB1 (P08183 whole entry): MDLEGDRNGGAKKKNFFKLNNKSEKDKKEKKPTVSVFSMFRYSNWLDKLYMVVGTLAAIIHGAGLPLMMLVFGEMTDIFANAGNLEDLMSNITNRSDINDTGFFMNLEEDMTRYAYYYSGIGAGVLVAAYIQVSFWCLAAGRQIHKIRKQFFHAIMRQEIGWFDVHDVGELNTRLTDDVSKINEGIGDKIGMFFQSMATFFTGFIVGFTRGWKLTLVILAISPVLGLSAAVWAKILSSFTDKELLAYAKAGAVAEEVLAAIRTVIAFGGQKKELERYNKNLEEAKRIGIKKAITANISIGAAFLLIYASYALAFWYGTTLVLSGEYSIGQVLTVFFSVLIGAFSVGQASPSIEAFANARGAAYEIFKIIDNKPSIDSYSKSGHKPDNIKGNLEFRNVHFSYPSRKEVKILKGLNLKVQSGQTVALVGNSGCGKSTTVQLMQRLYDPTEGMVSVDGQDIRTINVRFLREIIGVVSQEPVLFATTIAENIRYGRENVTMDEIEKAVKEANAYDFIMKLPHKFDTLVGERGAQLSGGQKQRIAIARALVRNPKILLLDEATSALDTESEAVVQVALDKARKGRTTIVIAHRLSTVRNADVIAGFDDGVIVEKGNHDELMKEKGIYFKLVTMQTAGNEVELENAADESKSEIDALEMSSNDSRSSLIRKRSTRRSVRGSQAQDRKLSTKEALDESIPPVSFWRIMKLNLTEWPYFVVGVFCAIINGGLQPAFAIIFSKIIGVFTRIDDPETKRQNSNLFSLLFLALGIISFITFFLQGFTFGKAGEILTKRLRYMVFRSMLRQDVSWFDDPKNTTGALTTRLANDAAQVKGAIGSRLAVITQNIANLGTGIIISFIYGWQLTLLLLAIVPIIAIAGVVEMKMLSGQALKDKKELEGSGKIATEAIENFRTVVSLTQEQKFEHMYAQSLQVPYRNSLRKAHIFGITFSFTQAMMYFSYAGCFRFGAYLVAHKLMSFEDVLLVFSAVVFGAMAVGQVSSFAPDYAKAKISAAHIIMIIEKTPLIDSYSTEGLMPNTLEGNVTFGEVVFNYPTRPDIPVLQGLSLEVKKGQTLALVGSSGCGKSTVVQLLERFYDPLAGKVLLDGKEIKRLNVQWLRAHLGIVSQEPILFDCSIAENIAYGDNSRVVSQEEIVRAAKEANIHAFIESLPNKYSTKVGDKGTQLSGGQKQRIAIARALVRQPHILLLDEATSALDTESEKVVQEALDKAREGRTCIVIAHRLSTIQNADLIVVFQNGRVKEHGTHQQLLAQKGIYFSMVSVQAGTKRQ

[4] = molecular target: ATP-dependent translocase ABCB1 (P-glycoprotein) (Homo sapiens, UniProt P08183); assay: TP_TRANSPORTER: inhibition of Rhodamine 123 efflux (R123: 5 ug/mL, TLCA: 200 uM) in P1(0.5) cells; type: functional, cell-based; conditions: probe Rhodamine 123, read-out: Activity
Sequence of ATP-dependent translocase ABCB1 (P-glycoprotein) (P08183 whole entry): as above

[5] = molecular target: Multidrug resistance protein 1a (Rattus norvegicus) (UniProt Q6PSM0); assay: TP_TRANSPORTER: inhibition of Daunomycin uptake (Daunorubicin: 10 uM, TLCA: 200 uM) in canalicular membrane vesicles from SD rat; type: functional, cell membranes; conditions: Sprague-Dawley, Canalicular membrane vesicle

Sequence of Multidrug resistance protein 1a (Rattus norvegicus) (Q6PSM0 as listed by the source): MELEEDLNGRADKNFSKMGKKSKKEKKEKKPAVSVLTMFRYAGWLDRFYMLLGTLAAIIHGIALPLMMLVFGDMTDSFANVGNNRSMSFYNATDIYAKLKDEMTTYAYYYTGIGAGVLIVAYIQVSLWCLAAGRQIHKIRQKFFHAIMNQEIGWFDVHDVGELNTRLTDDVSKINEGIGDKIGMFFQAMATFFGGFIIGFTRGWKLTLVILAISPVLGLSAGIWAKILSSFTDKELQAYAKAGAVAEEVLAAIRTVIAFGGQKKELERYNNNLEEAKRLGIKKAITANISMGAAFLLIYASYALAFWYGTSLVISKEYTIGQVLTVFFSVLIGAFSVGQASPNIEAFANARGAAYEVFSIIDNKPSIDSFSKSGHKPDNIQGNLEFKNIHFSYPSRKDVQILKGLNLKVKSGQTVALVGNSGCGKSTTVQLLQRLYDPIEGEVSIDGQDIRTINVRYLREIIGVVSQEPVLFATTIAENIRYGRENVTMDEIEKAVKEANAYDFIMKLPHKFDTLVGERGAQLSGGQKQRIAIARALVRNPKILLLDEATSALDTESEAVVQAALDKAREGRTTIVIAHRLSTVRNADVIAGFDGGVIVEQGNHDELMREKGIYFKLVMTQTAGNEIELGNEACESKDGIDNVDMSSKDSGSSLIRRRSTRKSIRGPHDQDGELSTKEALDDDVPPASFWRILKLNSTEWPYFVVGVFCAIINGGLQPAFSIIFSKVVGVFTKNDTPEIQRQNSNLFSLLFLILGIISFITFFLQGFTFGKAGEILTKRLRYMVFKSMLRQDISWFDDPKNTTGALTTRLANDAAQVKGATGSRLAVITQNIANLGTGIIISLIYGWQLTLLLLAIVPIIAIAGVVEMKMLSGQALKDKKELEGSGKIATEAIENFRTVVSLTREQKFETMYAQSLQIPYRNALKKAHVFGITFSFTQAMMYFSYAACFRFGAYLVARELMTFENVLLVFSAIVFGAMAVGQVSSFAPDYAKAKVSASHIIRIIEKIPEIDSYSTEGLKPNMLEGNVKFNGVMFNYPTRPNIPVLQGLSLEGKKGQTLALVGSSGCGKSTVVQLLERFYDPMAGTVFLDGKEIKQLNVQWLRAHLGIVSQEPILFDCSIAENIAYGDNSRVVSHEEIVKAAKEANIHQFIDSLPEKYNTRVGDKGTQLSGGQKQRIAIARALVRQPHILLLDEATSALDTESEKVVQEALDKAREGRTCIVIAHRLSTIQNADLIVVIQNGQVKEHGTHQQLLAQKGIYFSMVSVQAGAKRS

C[C@H](CCC(=O)O)[C@H]1CC[C@H]2[C@@H]3[C@@H](O)C[C@@H]4C[C@H](O)CC[C@]4(C)[C@H]3CC[C@]12C
Activity [1]: 39%

C[C@H](CCC(=O)NCCS(=O)(=O)O)[C@H]1CC[C@H]2[C@@H]3[C@H](O)C[C@@H]4C[C@H](O)CC[C@]4(C)[C@H]3CC[C@]12C [TAUROCHENODEOXYCHOLATE]
Activity [2]: 33% | Activity [3]: 66%

C[C@H](CCC(=O)NCCS(=O)(=O)O)[C@H]1CC[C@H]2[C@@H]3CC[C@@H]4C[C@H](O)CC[C@]4(C)[C@H]3CC[C@]12C [TAUROLITHOCHOLIC ACID]
activity at 200 µM [4]: 40% | Activity [5]: 16%
